Assay results published in ChEMBL document CHEMBL4739717, “Methods of treating cartilage disorders through inhibition of clk and dyrk” (2020).

Columns and labels:
[1] = Induction of chondrogenesis in human MSC assessed as maximum activity at 10 nM incubated for 6 days by rhodamine B and Nile red staining based imaging analysis relative to control; format: functional; conditions: BMMSC, 144 h, time 6 day
[2] = target: Dual specificity tyrosine-phosphorylation-regulated kinase 1A (Homo sapiens, UniProt Q13627); test: Inhibition of recombinant DYRK1A (unknown origin) using Ser/Thr 18 peptide as substrate incubated for 1 hr in presence of ATP by FRET assay
[3] = Effect on Wnt signaling pathway in human SW480 cells harbouring TCF/LEF luciferase reporter gene and SP5-Luc reporter gene incubated for 36 to 48 hrs by luminescence assay; format: cell-based
[4] = Inhibition of IL1-beta induced MMP3 expression levels in human chondrocytes assessed as MMP3 levels incubated for 2hrs followed by IL1-beta stimulation and measured after overnight incubation by LANCE assay; format: functional, cell-based; conditions: Chondrocyte

| Structure (SMILES) | EC50 [2] [nM] | EC50 [3] [nM] | EC50 [4] [nM] | Emax at 0.01 µM [1] [%] |
| --- | --- | --- | --- | --- |
| CC(C)CC(=O)Nc1cncc(-c2ccc3[nH]nc(-c4nc5c(-c6cccs6)cncc5[nH]4)c3c2)c1 | 19 | 0.1 |  | 53.3 |
| c1cncc(-c2cnc3[nH]nc(-c4cc5cccnc5[nH]4)c3c2)c1 | 9 | 1060 |  | 11 |
| O=C(Nc1cncc(-c2ccc3[nH]nc(-c4cc5c(-c6ccccc6F)nccc5[nH]4)c3n2)c1)C1CC1 | 46 | 642 |  | 24.8 |
| CCC1(N)CN(c2cncc(-c3ccc4[nH]nc(C)c4c3)n2)C1 | 54 | 1730 | 3000 |  |
| CC(C)CC(=O)Nc1cncc(-c2cnc3[nH]nc(-c4cc5c(-c6cccnc6)ccnc5[nH]4)c3c2)c1 | 5 | > 10000 |  | 43.5 |
| Fc1cccc(-c2cncc3[nH]c(-c4n[nH]c5cnc(-c6cncc(OC7CCNCC7)c6)cc45)nc23)c1 | 5 | > 10000 | 1710 |  |
| c1cncc(-c2cc3c(-c4nc5c(-c6cccnc6)nccc5[nH]4)n[nH]c3cn2)c1 | 29 | 28.3 |  | 44.5 |
| Cc1n[nH]c2ccc(-c3cncc(OCC4(F)CNC4)n3)cc12 | 25 | 3250 | 35 |  |
| COc1cncc(C(=O)Nc2c[nH]nc2C(=O)Nc2ccc(CN(C)C)cc2)c1 | 10 | 123 | 3000 |  |
| c1cc(-c2ccoc2)c2cc(-c3n[nH]c4ccc(-c5cncc(CNCC6CCCC6)c5)nc34)[nH]c2c1 | 59 | 3640 |  | 25.3 |
| O=C(Nc1cc2cc(-c3cnn4c3CCNC4)ccc2cn1)c1ccc(OC(F)F)cc1 | 6 | 375 | 1920 |  |
| O=C(CC1CCNCC1)Nc1cncc(-c2ccc3[nH]nc(-c4nc5c(-c6ccsc6)nccc5[nH]4)c3n2)c1 | 10 | > 10000 | 3000 |  |
| CCCCC(=O)Nc1cncc(-c2ccc3[nH]nc(-c4cc5cccnc5[nH]4)c3c2)c1 | 17 | 324 |  | 34.1 |
| Cc1ncc(-c2ccc3[nH]nc(-c4nc5c(-c6cc(F)cc(NCCN(C)C)c6)ccnc5[nH]4)c3n2)n1C | 8 | 620 | 12.8 |  |
| FC1(F)CCN(Cc2cncc(-c3cc4c(-c5cc6cccnc6[nH]5)n[nH]c4cn3)c2)C1 | 12 | 1350 |  | 45.3 |
| Cc1ncc(-c2ccc3cnc(NC(=O)C4(F)CC4)cc3c2)n1C | 6 | 2210 | 18.7 |  |
| O=C(Nc1cncc(-c2ccc3[nH]nc(-c4cc5c(-c6cccnc6)cncc5[nH]4)c3c2)c1)C1CCCC1 | 24 | 1350 |  | 45.5 |
| CN(C)Cc1cncc(-c2ccc3[nH]nc(-c4nc5c(-c6cccc(F)c6)cncc5[nH]4)c3n2)c1 | 62 | 1050 |  | 16.7 |

| Structure (SMILES) | EC50 [2] [nM] | EC50 [3] [nM] | EC50 [4] [nM] | Emax at 0.01 µM [1] [%] |
| --- | --- | --- | --- | --- |
| COc1ccc(NC(=O)c2n[nH]cc2/C=C/c2cncc(CN3CCCCC3)c2)cn1 | 5 | 1450 | 3000 |  |
| CN(C)Cc1cncc(-c2ccc3[nH]nc(-c4cc5cccnc5[nH]4)c3n2)c1 | 42 | > 10000 |  | 37 |
| Cc1n[nH]c2ccc(-c3cncc(OC[C@@H]4Cc5ccccc5CN4)n3)cc12 | 56 | 2810 | 3000 |  |
| Cc1ccncc1-c1cc2c(-c3nc4c(-c5cc(F)cc(CNS(C)(=O)=O)c5)cncc4[nH]3)n[nH]c2cn1 | 6 | 96.6 | 604 |  |
| CC#CC(=O)Nc1cc2cc(-c3cnn(C)c3)ccc2cn1 | 6 | 513 | 32.8 |  |
| Cc1n[nH]c2ccc(-c3cncc(N4CCC[C@H](N)C4)n3)cc12 | 50 | 1430 | 3000 |  |
| CCNCc1cncc(-c2ccc3[nH]nc(-c4nc5c(-c6ccccn6)nccc5[nH]4)c3c2)c1 | 10 | 2130 | 2.4 |  |
| O=C(Nc1ccc(OC(F)F)cc1)c1n[nH]c2ccc(-c3cnc4n3CCNC4)cc12 | 16 | 684 | 13 |  |
| Cc1[nH]nc(C(=O)Nc2ccc(CN3CCCC3)cc2)c1/C=C/c1cccnc1 | 33 | 2150 | 1050 |  |
| CCN(C)Cc1cncc(-c2cnc3[nH]nc(-c4nc5c(-c6cccc(F)c6)cncc5[nH]4)c3c2)c1 | 8 | 643 | 0.8 |  |
| Cc1[nH]nc(C(=O)Nc2ccc(OC3CCN(C)CC3)nc2)c1/C=C/c1cccnc1 | 20 | > 10000 | 17.8 |  |
| Cc1n[nH]c2ccc(-c3cncc(N4CC(C)(N)C4)n3)cc12 | 63 | 3510 | 1610 |  |
| O=C(Nc1cccnc1)c1n[nH]c2ncc(-c3cccnc3)cc12 | 6 | 795 | 2.2 |  |
| O=C(Nc1cncc(-c2ccc3[nH]nc(-c4nc5c(-c6cccnc6)cncc5[nH]4)c3c2)c1)c1ccccc1 | 6 | > 10000 | 1.9 |  |
| Cc1n[nH]c2ccc(-c3cncc(N4CCC(O)CC4)n3)cc12 | 22 | 1900 | 47.8 |  |
| Cc1n[nH]c2ccc(-c3cc(OC[C@H](N)Cc4ccccc4)cnn3)cc12 | 32 | 1150 | 3000 |  |
| FC1(F)CCN(Cc2cncc(-c3cnc4[nH]nc(-c5nc6c(-c7ccoc7)nccc6[nH]5)c4c3)c2)C1 | 10 | 162 | 0.1 |  |
| O=C(Nc1ccc(CN2CCCC2)cc1)c1n[nH]c2ccc(-c3cnccn3)cc12 | 4 | 1660 | 7.1 |  |

The next lines start with results.

| EC50 [2] [nM] | EC50 [3] [nM] | EC50 [4] [nM] | Structure (SMILES) | Emax at 0.01 µM [1] [%] |
| --- | --- | --- | --- | --- |
| 2 | > 10000 | 69.7 | O=C(Nc1cccnc1)c1n[nH]c2ccc(-c3cncc(CN4CC(CO)(CO)C4)c3)cc12 |  |
| 4 | 477 | 4.9 | CN1CCC(Oc2ccc(NC(=O)c3n[nH]c4ccc(-c5ccc(N)nc5)cc34)cc2)CC1 |  |
| 1 | 164 | 3000 | CC(C)n1cc(C(=O)Nc2cc3cc(-c4cncc(NC5CCN(C)CC5)n4)ncc3cn2)cn1 |  |
| 2 | 1500 | 6.7 | O=C(Nc1ccc(N2CC(CO)(CO)C2)nc1)c1n[nH]c2ccc(-c3cncc(CN4CCCCC4)c3)cc12 |  |
| 1 | 30 | 180 | Nc1ncc(NC(=O)c2n[nH]c3ccc(-c4cncc(CN5CCCCC5)c4)cc23)cn1 |  |
| 1 | 102 | 3000 | Cc1ncc(C(=O)Nc2cc3cc(-c4cnc(C)n4C)ccc3cn2)s1 |  |
| 1 | 315 | 3000 | Cn1cc(-c2cc3c(C(=O)Nc4ccc(OCCN5CCCC5)cc4)n[nH]c3cc2F)cn1 |  |
| 3 | 594 | 3000 | Cn1ncc(-c2ccc3cnc(NC(=O)[C@H]4CC[C@H](CO)CC4)cc3c2)c1CN1CCCCC1 |  |
| 1 | 196 | 3000 | O=C(Nc1ccc(CN2CCCC2)cc1)c1n[nH]c2ccc(-c3cccnc3F)cc12 |  |
| 1 | 27 | 5.5 | CS(=O)(=O)c1ccc(NC(=O)c2n[nH]c3ccc(-c4cncc(CN5CCCCC5)c4)cc23)cn1 |  |
| 2 | 793 | 1200 | Cn1cc(-c2cc3c(C(=O)Nc4ccc5c(c4)CNC5)n[nH]c3cc2F)cn1 |  |
| 2 | 0.6 | 3000 | CC(C)CC(=O)Nc1cncc(-c2cnc3[nH]nc(-c4nc5c(-c6cccc(F)c6)cncc5[nH]4)c3c2)c1 |  |
| 4 | 848 | 138 | O=C(Nc1cccnc1)c1n[nH]c2cnc(-c3cncc(CN4CCCCC4)c3)cc12 |  |
| 3 | > 10000 | 3000 | O=C(Nc1ccc(N2CCCC2)nc1)c1n[nH]c2ccc(-c3cncc(CN4CCC4)c3)cc12 |  |
| 1 | 120 | 1080 | CN1CCC(Oc2ccc(NC(=O)c3n[nH]c4cc(F)c(-c5cnn(C)c5)cc34)cn2)CC1 |  |
| 1 | 4570 | 845 | Cc1cn(-c2cncc3[nH]c(-c4n[nH]c5ccc(-c6cncc(NC(=O)CC(C)C)c6)cc45)nc23)cn1 |  |
| 2 | 430 | 3000 | O=C(Nc1cnccn1)c1n[nH]c2ccc(-c3cncc(CN4CCCCCC4)c3)cc12 |  |
| 4 | 1850 | 3000 | O=C(Nc1ccc(OCCN2CCCC2)cc1)c1n[nH]cc1/C=C/c1cccnc1 |  |
| 2 | 65.6 | 3000 | CN1CCC(Nc2cc(C(=O)Nc3cc4cc(-c5cnn(C)c5)ccc4cn3)ccn2)CC1 |  |
| 3 | 95 | 3000 | Cc1ncc(NC(=O)c2n[nH]c3ccc(-c4cnn(C5CCN(C)CC5)c4)cc23)s1 |  |
| 3 | 645 | 44.2 | Cc1cc(-c2ccc3[nH]nc(C(=O)Nc4ccc(OC5CCN(C)CC5)cc4)c3c2)sn1 |  |
| 1 | 964 | 3000 | CN1CCC(Oc2ccc(NC(=O)c3n[nH]cc3/C=C/c3cccnc3)cn2)CC1 |  |
| 1 | 1650 | 0.2 | O=C(Nc1ccc(N2CCNCC2)nc1)c1n[nH]cc1/C=C/c1cccnc1 |  |
| 2 | 34.8 | 1430 | CC(C)n1cc(C(=O)Nc2cc3cc(-c4cncn4C)ccc3cn2)cn1 |  |
| 3 | 13.3 | 40.1 | CN1CCC(n2cc(C(=O)Nc3cc4cc(-c5cncc6[nH]ccc56)ccc4cn3)cn2)CC1 |  |
